These results are taken from patent US20060183794A1, “Drug composition containing nf-kb inhibitor” (priority 2002, published 2006).

The subject of test [1] is Hodgkin's lymphoma cell lines KMH-2 and L-540. As to the kind of experiment: MTT assay, proliferation of Hodgkin's lymphoma cell lines. Format: cell-based. As to the method: Cells from the ATL cell lines (MT-1 and TL-Om1) and a control cell line (K562) were plated in 96-well plates at 1×10^5 cells/well and DHM2EQ was added at the desired final concentrations (2, 5, and 10 μg/ml). Cells to which the solvent DMSO had been added in equal volume (0 μg/ml) were used as […] incubation for 72 hours, cell viability was judged by the MTT assay. Relative MTT values were obtained as the ratio of the MMT values of DHM2EQ-treated cells to those of DHM2EQ-untreated cells, i.e., (MTT values of DHM2EQ-treated cells/MTT values of DHM2EQ-untreated cells)×100(%).
DHM2EQ was added to the ATL cell lines (MT-1 and TL-Om1) and a control cell line (K562) at a final concentration of 10 μg/ml and the cells were incubated for 12, 24, 48, and 72 hours. The proliferation-inhibitory effect was examined by the MTT assay. Cells to which the solvent DMSO had been added in equal volume were used as controls. Relative MTT values were obtained in the same manner as the aforementioned (1).
Time-course analysis and concentration dependence analysis of the inhibitory effect of DHM2EQ on proliferation of Hodgkin's lymphoma cells were performed in the same manner as in Example 2. As Hodgkin's lymphoma cells, the Hodgkin's lymphoma cell lines KMH-2 and L-540 were used.
A general note: Formazan colour is commonly taken as a measure of viable cells.

A further test addresses NF-κB (Homo sapiens, UniProt P19838+Q04206). As to the kind of experiment: Gel shift assay of NF-κB/DNA binding in TNF-α-treated MCF-7 cells. Also noted: endogenous in cells; host or cells: MCF-7 cells treated with TNF-α. It is filed as cell-based. The conditions noted are these: 30 min. As to the method:
MCF-7 cells (endowed by Professor Adrian L. Harriswere, Oxford University) were plated in portions of 4 ml at 1×10^5 cells/ml in […] (2 dishes per condition). On the next day, the culture medium in the 60 mm dishes was adjusted to 2 ml, treated with DHMEQ prepared at 1, 3, and 10 μg/ml for 2 hours, and subsequently, with TNF-α at 20 ng/ml. The culture medium in 60 mm dishes was extracted with a sucker 30 min after TNF-α treatment, cells were washed twice with PBS− for external application, 1 ml of cold PBS− was added, the cells were scraped with a rubber policeman (twice), and transferred to a 15 ml centrifuge tube. Cells were collected from two 60 mm dishes into a 15 ml centrifuge tube, centrifuged at 1,000 rpm for 5 min, and the supernatant was removed. To this, 700 μl of cold PBS− was added. […] The following operations were performed in ice. […] Next, collected nuclei were suspended in 40 μl buffer C (20 mM HEPES-KOH: pH7.9 […] 25% glycerol, 420 mM NaCl, 1.5 mM MgCl2, 0.2 mM EDTA, 0.5 mM DTT, 0.2 mM PMSF) and allowed to stand for 20 min. […]
Next, a Nick column was installed in the stand and a waste-liquid bottle was placed under the column. […] The column, fraction 1, and fraction 2 were measured individually with a Geiger counter and the readings confirmed fraction 2>the column>fraction 1. […]
(In EMSA bound probe runs differently from free probe, usually more slowly.)

Chain of NF-κB (Q04206 whole entry): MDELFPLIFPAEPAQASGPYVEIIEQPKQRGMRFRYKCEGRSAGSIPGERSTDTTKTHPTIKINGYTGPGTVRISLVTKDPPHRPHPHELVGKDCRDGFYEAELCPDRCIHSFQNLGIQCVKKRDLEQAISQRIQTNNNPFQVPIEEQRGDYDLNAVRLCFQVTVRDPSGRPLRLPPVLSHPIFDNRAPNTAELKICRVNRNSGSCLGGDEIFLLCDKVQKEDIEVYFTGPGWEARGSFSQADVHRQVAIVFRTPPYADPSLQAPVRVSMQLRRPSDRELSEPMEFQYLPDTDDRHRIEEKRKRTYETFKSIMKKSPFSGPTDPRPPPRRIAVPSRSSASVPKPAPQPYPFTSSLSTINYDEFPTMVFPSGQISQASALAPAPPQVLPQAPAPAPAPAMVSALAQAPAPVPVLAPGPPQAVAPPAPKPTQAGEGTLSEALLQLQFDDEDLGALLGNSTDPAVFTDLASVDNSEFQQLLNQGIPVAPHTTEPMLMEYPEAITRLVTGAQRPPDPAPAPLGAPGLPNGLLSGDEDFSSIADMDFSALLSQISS
Chain of NF-κB (P19838 1-433 limits assumed): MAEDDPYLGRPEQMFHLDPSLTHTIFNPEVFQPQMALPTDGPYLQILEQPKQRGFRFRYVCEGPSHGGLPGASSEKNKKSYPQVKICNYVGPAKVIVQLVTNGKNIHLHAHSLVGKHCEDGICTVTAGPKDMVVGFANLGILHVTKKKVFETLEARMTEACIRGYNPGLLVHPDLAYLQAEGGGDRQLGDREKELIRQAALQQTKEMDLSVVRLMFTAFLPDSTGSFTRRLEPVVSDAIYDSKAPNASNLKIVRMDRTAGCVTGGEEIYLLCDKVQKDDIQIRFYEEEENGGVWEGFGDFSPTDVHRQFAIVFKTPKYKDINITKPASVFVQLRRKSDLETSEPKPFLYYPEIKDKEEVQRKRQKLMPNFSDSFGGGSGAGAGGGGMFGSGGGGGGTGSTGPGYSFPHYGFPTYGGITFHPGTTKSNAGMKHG

In the case of `O=C(NC1=CC(=O)C2OC2C1O)c1ccccc1O` (stereo not shown) [DHMEQ, 5,6-epoxy-4-hydroxy-3-salicyloylamino-2-cyclohexenone], in test [1], the “cell proliferation, concentration dependence” value is listed as “inhibited in proportion to the DHM2EQ concentrations added” and the “cell proliferation, time course” value is listed as “inhibited in proportion to the DHM2EQ treatment time”. Besides, the “binding between NF-κB and DNA” value at NF-κB (DHMEQ 10 μg/ml, TNF-α 20 ng/ml) is reported as “completely inhibited”. The “binding between NF-κB and DNA” value at NF-κB (DHMEQ 1, 3, 10 μg/ml for 2 hours, then TNF-α 20 ng/ml) is “concentration-dependently inhibited”.
